Experimental findings from PubChem BioAssay (NCI) are described below.

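Cells were grown in 96-well plates and exposed to each compound for 48 hours at five concentrations; endpoints were interpolated linearly between bracketing concentrations, or set to the highest concentration if not reached. TGI denotes the concentration required for complete inhibition of growth.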 Some results are limits rather than exact numbers.

What all share (test): NCI tumour cell line growth inhibition, 48 h
Experiment [1] relates to MALME-3M melanoma.
Experiment [2] deals with UO-31 renal.
In experiment [3] the test system is HCT-15 colon.
Experiment [4] concerns OVCAR-8 ovarian.
Experiment [5] has as its system SK-OV-3 ovarian.
For experiment [6], the system named is SNB-19 CNS.
Experiment [7] has as its system HCT-116 colon.
For experiment [8], the system named is SNB-75 CNS.
The subject of experiment [9] is A549 NSCLC.
Experiment [10] deals with RXF 393 renal.
Experiment [11] relates to M14 melanoma.
Experiment [12] concerns NCI-H23 lung.
Experiment [13] concerns 786-0 renal.
The subject of experiment [14] is HCC-2998 colon.
For experiment [15], the system named is SF-295 CNS.
In experiment [16] the test system is T-47D breast.
For experiment [17], the system named is BT-549 breast.
Experiment [18] deals with SK-MEL-2 melanoma.
The subject of experiment [19] is UACC-62 melanoma.
Experiment [20] relates to HS 578T breast.

As for `Cn1c(-c2ccc(C=O)o2)ccc1-c1ccc(C=O)o1`, the TGI in experiment [1], in [2], in [3], in experiment [4], in experiment [5] and in experiment [6] was greater than 100 µM each time. For the same molecule, the TGI in experiment [7] is 36.7 µM; in experiment [8] it was greater than 100 µM; in [9], greater than 100 µM; in [10], greater than 100 µM; in experiment [11] it was greater than 100 µM; in [12], greater than 100 µM. The TGI in experiment [13], in experiment [14], in [15], in experiment [16], in experiment [17] and in experiment [18] was greater than 100 µM throughout. This molecule also returned a TGI in experiment [19] greater than 100 µM.
On to `O=P1(c2ccccc2)C(c2ccccc2)CCC1c1ccccc1` (centres undefined), for which the TGI in experiment [2], in [3], in experiment [4], in experiment [5], in experiment [6] and in [7] was greater than 100 µM each time. Moreover, the TGI in experiment [8], in experiment [9], in experiment [10], in [11], in experiment [12] and in experiment [13] was greater than 100 µM each time. The TGI in experiment [14] was greater than 100 µM; in [15] it was greater than 100 µM; in experiment [17] it was 85.5 µM; in experiment [20] it was greater than 100 µM; in [19], greater than 100 µM.
Regarding `O=[N+]([O-])c1ccc(-c2csc(N=Nc3c(O)[nH]c4ccccc34)n2)cc1`, the TGI in experiment [2] was 39.2 µM; in experiment [3] it was 30.1 µM; in experiment [4] it was 70 µM; in experiment [5], greater than 100 µM; in experiment [6], greater than 100 µM; in experiment [7], greater than 100 µM. In addition, the TGI is greater than 100 µM in experiment [8]; 81.3 µM in [9]; 36.4 µM in experiment [11]; greater than 100 µM in experiment [12]; greater than 100 µM in [13]; 50.5 µM in experiment [14]. Also, the TGI in experiment [15] was greater than 100 µM; in [16] it was greater than 100 µM; in experiment [17], 42.8 µM; in experiment [18], 84.2 µM.
On to `CC(NC1=NCCO1)c1ccccc1Cl` (centres undefined), for which the TGI in [1], in [2], in [3], in experiment [4], in experiment [5] and in experiment [6] was greater than 100 µM in each case. Also, the TGI in experiment [7], in [8], in experiment [9], in experiment [10], in experiment [11] and in [12] was greater than 100 µM throughout. Also, the TGI in [13], in experiment [14], in [15], in [16], in [20] and in experiment [18] was greater than 100 µM throughout. The same molecule gave a TGI in experiment [19] greater than 100 µM.
As to `O=C1C(Cl)=C(Cl)C(=O)C(CCNc2nccs2)=C1Cl`, the TGI in [1] is 46.6 µM; in [2], 46.4 µM; in experiment [3], 43.7 µM; in experiment [4], 87.3 µM; in experiment [5], greater than 100 µM; in experiment [6], greater than 100 µM. In addition, the TGI is 68.4 µM in experiment [7]; 69.5 µM in [8]; greater than 100 µM in experiment [9]; 46.2 µM in experiment [10]; 42 µM in experiment [11]; 59.3 µM in [12]. In addition, the TGI in experiment [13] is 45 µM; in experiment [14], greater than 100 µM; in experiment [15], greater than 100 µM; in experiment [16], greater than 100 µM; in experiment [20], 75.3 µM; in experiment [18], 75.6 µM. The TGI in experiment [19] worked out at 63.6 µM.
For `COC(=O)CCc1ccc(CCC(=O)OC)cc1`, the TGI in experiment [1], in experiment [2], in [3], in experiment [4], in experiment [5] and in experiment [6] was greater than 100 µM each time. Also, the TGI in experiment [7], in experiment [8], in experiment [9], in [10], in experiment [11] and in [12] was greater than 100 µM each time. Further, the TGI in experiment [13], in experiment [14], in experiment [15], in [16], in [20] and in experiment [18] was greater than 100 µM in each case.
As for `COC(=O)c1cc2c(c(C(=O)OC)c1)CCC2`, the TGI in experiment [1], in experiment [2], in experiment [3], in experiment [4], in experiment [5] and in experiment [6] was greater than 100 µM each time. The TGI in [7], in experiment [8], in [9], in experiment [10], in [11] and in [12] was greater than 100 µM each time. Besides, the TGI in experiment [13], in experiment [14], in experiment [15], in [16], in [20] and in [18] was greater than 100 µM in each case.
Take `OC1NC2Nc3ccccc3NC2NC1O` (centres undefined): the TGI in experiment [1], in experiment [3], in experiment [4], in experiment [5], in experiment [6] and in [7] was greater than 100 µM each time. For the same molecule, the TGI in experiment [8], in experiment [9], in [10], in experiment [11], in experiment [12] and in [13] was greater than 100 µM each time. The TGI in [14], in experiment [15], in experiment [16], in experiment [20], in [18] and in experiment [19] was greater than 100 µM in each case.
